Patent US20240327361A1, “RADIOLABELED COMPOSITIONS AND METHODS OF USE THEREOF” (The Research Foundation for the State University of New York, priority 2021, published 2024)

Tests used:
[1] = Partition coefficient, octanol/PBS shake flask method; assay type: physicochemical; settings: phosphate buffer pH 7.4
Description: The log P was determined by partitioning the tracer between octanol and phosphate buffer at pH 7.4 and measuring the concentration of the tracer in each layer. The radioactivity of each layer is counted using gamma-counter. The partition coefficient (P) is calculated as [radioactivity (cpm/ml) in 1-octanol)]/[(radioactivity (cpm/ml) in phosphate buffer pH 7.4].

class-lla HDACs = assay: In vivo microPET imaging of healthy rats (biodistribution, self-blocking with cold TMP195); design: species or system Sprague Dawley rats
Description: Sprague Dawley rats (200-250 g, N=3,) were anesthetized with 3% isoflurane in oxygen and maintained at 2% isoflurane in oxygen throughout the imaging studies. Anesthetized rat was placed in the uPET (Siemens, Knoxville, TN) with the skull positioned in the center of the field of view. The tracer (500-700 μCi/animal) was administered intravenously into each Rat (n=3 per group) in a total volume 0.5-1.0 ml solution. Dynamic PET images were obtained over 60 minutes. Images were reconstructed with attenuation correction using an ordered subset expectation maximization (OSEM2D) algorithm with 16 subsets and 4 iterations.
Dynamic PET images were analyzed with Inveon Research Workplace 4.0 (Siemens, Knoxville, TN) and AMIDE software using manual segmentation of regions of interest (ROI), were drawn over ROI on the decay-corrected coronal images. The radioactivity accumulation (tracer uptake) within the ROI were obtained as percentage of the injected dose (ID) per gram of tissue (% ID/g). The time-activity curve (TAC) was generated from the region of interest (ROI) by plotting the radioactivity/cc vs time.
(§1) Anesthetized Sprague Dawley rats (200-250 g, N=6) were placed in the Inveon uPET (Siemens, Knoxville, TN) in the supine position with the skull positioned in the center of the field of view. [^18F]-NT160 was formulated in ethanol:polysorbate 80:saline (10:10:80%) and it was stable in this formulation at 37° C. at least for 4 hours. [^18F]-NT160 (18.5-25.9 MBq/animal) was administered via the tail-vein injection in a total volume 0.5-1.0 ml. Dynamic PET images were obtained over 60 minutes followed by CT imaging (15 min scan). Images were reconstructed with attenuation correction using an ordered subset expectation maximization (OSEM2D) algorithm with 16 subsets and 4 iterations. PET image analysis was performed using the AMIDE software by using manual segmentation of regions of interest (ROI), including: whole brain, cortex, hippocampus, thalamus, cerebellum, and brain stem. Rat Brain Atlas was used for alignment and identification of specific anatomical markers of the brain. The time-activity curve (TAC) was generated from the region of interest (ROI) by plotting the radioactivity/cc vs time. Levels of accumulation of the radiotracer in tissues were expressed as standard uptake values (SUV) that were calculated for the regions of interest (ROI) using the AMIDE software. The SUV is defined as the ratio of the tissue radioactivity concentration C (e.g. expressed as Bq/g tissue) at given time point post injection T, and the injected dose (e.g. in Bq, decay-corrected to the same time T), and normalized by the body weight in grams. GraphPad Prism (Graph Pad Software La Jolla, CA) was used for image data analysis. [^18F]-NT2-160 was also prepared by the same or similar procedure.

[2] = Stability of the tracer in its injection formulation; assay type: physicochemical; settings: ethanol:polysorbate 80:saline (10:10:80%), 37° C.
Description: as §1, with “PET image analysis was performed using the AMIDE software by using manual segmentation of regions of interest (ROI), including: whole brain, cortex, hippocampus, thalamus, cerebellum, and brain stem. Rat Brain Atlas was used for alignment and identification of specific anatomical markers of the brain.” left out, “GraphPad Prism (Graph Pad Software La Jolla, CA) was used for image data analysis. [^18F]-NT2-160 was also prepared by the same or similar procedure.” left out

[3] = rat, co-administered TMP195 2 mg/kg

Row | SMILES | logD [1] | tracer uptake in the harderian gland (class-lla HDACs; rat) | biodistribution / uptake in brain regions (class-lla HDACs; rat brain PET) | uptake in the wrist (class-lla HDACs; rat, baseline and blocking with TMP195) | uptake in the brown fat adipose tissues (BATs) (class-lla HDACs; rat, cervical and interscapular BAT, 60 min) | brain uptake with cold dose of TMP195 vs baseline (self-blocking) (class-lla HDACs; [3]) | tracer uptake in BATs with cold dose of TMP195 (blocking) (class-lla HDACs; [3]) | accumulation in the liver (class-lla HDACs; rat, dynamic PET over 60 min) | clearance from most normal tissues (heart, brain, muscle) (class-lla HDACs; rat, dynamic PET over 60 min) | peak uptake in the brain (class-lla HDACs; rat, intravenous tracer, dynamic PET over 60 min) [% ID/g] | tracer uptake in the muscle (class-lla HDACs; rat, not affected by blocking) | stable in formulation [2] [h]
1 | CC(C)(CNC(=O)c1cccc(-c2noc(C(F)(F)[18F])n2)c1)c1coc(-c2ccccc2)n1 [^18F-NT57] | > 6 | neither specific nor unique | heterogeneous | intense and blockable | intense and increased uptake | reduced | reduced | accumulated heavily | rapid clearance | ~1 | low and nonspecific | –
2 | C[C@H](CN(C)Cc1ccccc1)NC(=O)c1ccc(-c2noc(C(F)(F)[18F])n2)cc1 [[^18F]-NT160] | – | – | – | – | – | – | – | – | – | – | – | ≥ 4
